The source of these data is PMC10544575, “Inhibitory mechanism of vortioxetine on CYP450 enzymes in human and rat liver microsomes” (Frontiers in Pharmacology, 2023).

For one data set, the system named is CYP3A. As to the kind of experiment: Reversible inhibition kinetics (Lineweaver-Burk), CYP3A in RLMs. The format is in vitro ADME, rat. How it is done: The components of the incubation system were as follows: 0.20 mg/mL HLMs or 0.20 mg/mL RLMs, 0.1 M Tris-HCl, vortioxetine, and the probe substrates of each enzyme. In the study of Km’s (Michaelis–Menten constant) experiment, midazolam (1, 2, 5, 10, 20, 50 and 100 μM in HLMs and RLMs) corresponded to CYP3A4/3A; bupropion (10, 20, 50, 100, 200, 500, 1,000 and 2000 μM in HLMs; 1, 2, 5, 10, 20, 50, 100 and 200 μM in RLMs) corresponded to CYP2B6/2B; amodiaquine (5, 10, 20, 50, 100 and 200 μM in HLMs; 10, 20, 50, 100, 200, 500 μM in RLMs) corresponded to CYP2C8/CYP2C-1; losartan (1, 2, 5, 10, 20, 50, 100, 200 μM in HLMs; 10, 20, 50, 100, 200, 500 and 1,000 μM in RLMs) corresponded to CYP2C9/CYP2C-2; mephenytoin (20, 50, 100, 200, 500 and 1,000 μM in HLMs; 5, 10, 20, 50, 100, 200, 500 and 1,000 μM in RLMs) corresponded to CYP2C19/CYP2C-3; and dextromethorphan (1, 2, 5, 10, 20, 50 and 100 μM in HLMs and RLMs) corresponded to CYP2D6/CYP2D. […]
All experiments results were detected by UPLC-MS/MS, which equipped with a Waters Acquity UPLC system (Milford, MA, United States) and a Waters Xevo TQ-S triple quadrupole tandem mass spectrometer with an electrospray ionization source (Milford, MA, United States). […]
(§1) IC50 values and enzyme kinetic parameters were calculated by Graphpad Prism 6.0 (GraphPad software Inc., CA, United States). […] Data for each experiment were expressed as mean ± SD (n = 3).

The conditions of data set [1]: no reference given; cited from earlier work.
Another data set addresses T1, CYP2B6 (Homo sapiens, UniProt P20813).
T1 sequence (P20813 1-491): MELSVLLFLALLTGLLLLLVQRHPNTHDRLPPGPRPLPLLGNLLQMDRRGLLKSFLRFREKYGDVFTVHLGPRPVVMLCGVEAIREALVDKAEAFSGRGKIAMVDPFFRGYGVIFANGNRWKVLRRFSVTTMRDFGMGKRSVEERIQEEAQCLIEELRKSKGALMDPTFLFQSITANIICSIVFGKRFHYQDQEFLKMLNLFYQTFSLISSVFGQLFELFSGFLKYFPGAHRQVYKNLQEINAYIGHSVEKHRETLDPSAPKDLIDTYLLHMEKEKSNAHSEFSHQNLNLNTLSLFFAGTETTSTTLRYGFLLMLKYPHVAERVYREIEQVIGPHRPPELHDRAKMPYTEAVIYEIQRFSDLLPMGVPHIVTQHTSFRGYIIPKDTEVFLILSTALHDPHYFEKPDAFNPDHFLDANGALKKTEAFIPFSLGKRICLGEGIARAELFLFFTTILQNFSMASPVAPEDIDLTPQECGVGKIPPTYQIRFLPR
Briefly: Reversible inhibition kinetics (Lineweaver-Burk), CYP2B6 in HLMs. The format is in vitro ADME. Also on record: 0.20 mg/mL HLMs; from tissue; host or cells: human liver microsomes. As to conditions: bupropion. How it is done: The components of the incubation system were as follows: 0.20 mg/mL HLMs or 0.20 mg/mL RLMs, 0.1 M Tris-HCl, vortioxetine, and the probe substrates of each enzyme. In the study of Km’s (Michaelis–Menten constant) experiment, midazolam (1, 2, 5, 10, 20, 50 and 100 μM in HLMs and RLMs) corresponded to CYP3A4/3A; bupropion (10, 20, 50, 100, 200, 500, 1,000 and 2000 μM in HLMs; 1, 2, 5, 10, 20, 50, 100 and 200 μM in RLMs) corresponded to CYP2B6/2B; amodiaquine (5, 10, 20, 50, 100 and 200 μM in HLMs; 10, 20, 50, 100, 200, 500 μM in RLMs) corresponded to CYP2C8/CYP2C-1; losartan (1, 2, 5, 10, 20, 50, 100, 200 μM in HLMs; 10, 20, 50, 100, 200, 500 and 1,000 μM in RLMs) corresponded to CYP2C9/CYP2C-2; mephenytoin (20, 50, 100, 200, 500 and 1,000 μM in HLMs; 5, 10, 20, 50, 100, 200, 500 and 1,000 μM in RLMs) corresponded to CYP2C19/CYP2C-3; and dextromethorphan (1, 2, 5, 10, 20, 50 and 100 μM in HLMs and RLMs) corresponded to CYP2D6/CYP2D. After 5.0 min of preincubation in the shaking water bath, the reaction was started with the addition of 1.0 mM NADPH. The incubated temperature at 37°C for 30 min. After the incubation, the enzyme reaction was stopped by cooling at −80°C, and 200 μL of acetonitrile and 20 μL of internal standard diazepam (200 ng/mL) were added for protein precipitation. The solution was fully vortexed and centrifuged at 13,000 × rpm for 10 min, and the supernatant was collected for data analysis by UPLC-MS/MS.
The inhibitory mechanism of the inhibitor on the enzyme was generally used by different concentrations of the inhibitor against different concentrations of the probe substrate. The concentrations of the inhibitor and the concentrations of probe substrates in the experiment were estimated based on IC50 and Km values, respectively.
In HLMs, the concentrations of the substrates midazolam, bupropion, amodiaquine, losartan, mephenytoin, and dextromethorphan were 1, 2, 4, 8 μM; 10, 20, 40, 80 μM; 0.8, 1.5, 3, 6 μM; 2, 4, 8, 16 μM; 20, 45, 90, 180 μM; 2.5, 5, 10, 20 μM, respectively. Corresponding to the concentration of vortioxetine were 2, 4, 9, 18 μM; 2, 4, 8, 16 μM; 4, 8, 15, 30 μM; 5, 10, 25, 50 μM; 0.6, 1.2, 2.5, 5 μM; 4.5, 9, 18, 36 μM, respectively.
All experiments results were detected by UPLC-MS/MS, which equipped with a Waters Acquity UPLC system (Milford, MA, United States) and a Waters Xevo TQ-S triple quadrupole tandem mass spectrometer with an electrospray ionization source (Milford, MA, United States). The chromatographic separation was performed on a Waters ACQUITY UPLC BEH C18 column (2.1 × 50 mm, 1.7 μm, Waters Corp.) at 40°C. […]
as §1

Broadly, the Ki is the dissociation constant of the complex between target and ligand, obtained from inhibition or displacement.

For `Cc1ccc(Sc2ccccc2N2CCNCC2)c(C)c1` [vortioxetine], in the data set on CYP3A (midazolam, Lineweaver-Burk plot), the Inhibition type entry is “uncompetitive inhibition”. Also, in the data set with CYP3A (rat, rat liver microsomes, probe midazolam), the Ki at 30 min was found to be 4.41 µM. The “plasma protein (binding)” value in data set [1] was 99%. Further, at CYP2B6, the affinity corresponds to a Ki of 8.55 µM and the α amounted to 2.70. For the same compound, the Inhibition type entry at CYP2B6 (Lineweaver-Burk plot) is reported as “mixed inhibition”. The compound further yielded a αKi at CYP2B6 (secondary plot of y-intercepts) of 23.04 µM.
